How the values were obtained:
Assay type in all cases: cell-based
[1] = molecular target: EGFR(D770_N771insSVD) expressing Ba/F3 stable cell line (Homo sapiens, UniProt P00533, DUP768-770, cells depend on it); experiment: Cellular proliferation (Alamar Blue) assay, EGFR D770_N771insSVD Ba/F3; conditions: 72 hr, read-out: D770 IC50
Summary of the method: (§1)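 Ba/F3 stable lines (15,000 cells/well, RPMI + 10% FBS) seeded 16–18 h, then treated 72 h at 37 °C with compound, final 10–0.0005 μM in 3-fold dilutions. Viability read by Alamar Blue after 3 h incubation.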

[2] = molecular target: HER2 (A775_G776insYVMA) expressing Ba/F3 stable cell line (Homo sapiens, UniProt P04626, DUP772-775, cells depend on it); experiment: Cellular proliferation (Alamar Blue) assay, HER2 A775_G776insYVMA Ba/F3; conditions: 72 hr, read-out: YVMA IC50
Summary of the method: as §1

[3] = molecular target: EGFR (A767_dupASV) expressing Ba/F3 stable cell line (Homo sapiens, UniProt P00533, DUP767-769, cells depend on it); experiment: Cellular proliferation (Alamar Blue) assay, EGFR A767_dupASV Ba/F3; conditions: 72 hr, read-out: A767 IC50
Summary of the method: as §1

A431 cells = experiment: Cellular proliferation (Alamar Blue) assay, A431; conditions: Homo sapiens, A-431; A431 cells, 72 hr, Alamar Blue; read-out: A431 IC50

HER2 (A775_G776insYVMA) expressing Ba/F3 stable cell line, sequence (P04626 with tags, fused parts or gaps DUP772-775): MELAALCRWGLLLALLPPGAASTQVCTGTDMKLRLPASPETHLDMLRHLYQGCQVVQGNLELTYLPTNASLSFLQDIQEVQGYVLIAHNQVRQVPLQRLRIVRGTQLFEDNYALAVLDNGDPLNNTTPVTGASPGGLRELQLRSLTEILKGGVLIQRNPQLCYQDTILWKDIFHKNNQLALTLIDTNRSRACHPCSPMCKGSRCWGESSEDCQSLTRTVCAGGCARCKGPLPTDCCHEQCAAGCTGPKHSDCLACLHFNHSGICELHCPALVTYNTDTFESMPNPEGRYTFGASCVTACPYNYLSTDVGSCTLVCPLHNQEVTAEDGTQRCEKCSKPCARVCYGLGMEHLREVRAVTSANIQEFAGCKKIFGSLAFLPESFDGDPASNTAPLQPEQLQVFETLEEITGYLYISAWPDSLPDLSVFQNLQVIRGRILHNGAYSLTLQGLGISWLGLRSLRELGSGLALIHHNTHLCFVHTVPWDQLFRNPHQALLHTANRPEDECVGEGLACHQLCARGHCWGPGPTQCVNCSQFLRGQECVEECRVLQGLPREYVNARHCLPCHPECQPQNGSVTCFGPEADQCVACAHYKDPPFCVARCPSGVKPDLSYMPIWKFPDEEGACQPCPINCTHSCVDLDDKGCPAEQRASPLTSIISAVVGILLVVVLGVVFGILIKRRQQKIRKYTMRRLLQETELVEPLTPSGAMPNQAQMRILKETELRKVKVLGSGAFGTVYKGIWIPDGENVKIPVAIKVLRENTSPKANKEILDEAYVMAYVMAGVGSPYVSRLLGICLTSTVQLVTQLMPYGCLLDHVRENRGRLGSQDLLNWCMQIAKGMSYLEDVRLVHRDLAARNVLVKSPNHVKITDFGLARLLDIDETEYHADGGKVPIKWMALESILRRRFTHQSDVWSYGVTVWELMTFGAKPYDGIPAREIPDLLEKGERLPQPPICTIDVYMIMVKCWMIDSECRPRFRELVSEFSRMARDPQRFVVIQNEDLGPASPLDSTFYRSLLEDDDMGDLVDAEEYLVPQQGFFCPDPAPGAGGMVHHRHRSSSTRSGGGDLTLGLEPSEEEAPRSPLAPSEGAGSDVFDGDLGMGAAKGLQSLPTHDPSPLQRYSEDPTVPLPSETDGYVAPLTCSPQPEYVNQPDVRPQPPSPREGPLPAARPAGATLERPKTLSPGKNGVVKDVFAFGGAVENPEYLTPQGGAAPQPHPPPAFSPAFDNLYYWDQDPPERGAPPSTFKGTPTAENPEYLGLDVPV
EGFR (A767_dupASV) expressing Ba/F3 stable cell line, sequence (P00533 with tags, fused parts or gaps DUP767-769): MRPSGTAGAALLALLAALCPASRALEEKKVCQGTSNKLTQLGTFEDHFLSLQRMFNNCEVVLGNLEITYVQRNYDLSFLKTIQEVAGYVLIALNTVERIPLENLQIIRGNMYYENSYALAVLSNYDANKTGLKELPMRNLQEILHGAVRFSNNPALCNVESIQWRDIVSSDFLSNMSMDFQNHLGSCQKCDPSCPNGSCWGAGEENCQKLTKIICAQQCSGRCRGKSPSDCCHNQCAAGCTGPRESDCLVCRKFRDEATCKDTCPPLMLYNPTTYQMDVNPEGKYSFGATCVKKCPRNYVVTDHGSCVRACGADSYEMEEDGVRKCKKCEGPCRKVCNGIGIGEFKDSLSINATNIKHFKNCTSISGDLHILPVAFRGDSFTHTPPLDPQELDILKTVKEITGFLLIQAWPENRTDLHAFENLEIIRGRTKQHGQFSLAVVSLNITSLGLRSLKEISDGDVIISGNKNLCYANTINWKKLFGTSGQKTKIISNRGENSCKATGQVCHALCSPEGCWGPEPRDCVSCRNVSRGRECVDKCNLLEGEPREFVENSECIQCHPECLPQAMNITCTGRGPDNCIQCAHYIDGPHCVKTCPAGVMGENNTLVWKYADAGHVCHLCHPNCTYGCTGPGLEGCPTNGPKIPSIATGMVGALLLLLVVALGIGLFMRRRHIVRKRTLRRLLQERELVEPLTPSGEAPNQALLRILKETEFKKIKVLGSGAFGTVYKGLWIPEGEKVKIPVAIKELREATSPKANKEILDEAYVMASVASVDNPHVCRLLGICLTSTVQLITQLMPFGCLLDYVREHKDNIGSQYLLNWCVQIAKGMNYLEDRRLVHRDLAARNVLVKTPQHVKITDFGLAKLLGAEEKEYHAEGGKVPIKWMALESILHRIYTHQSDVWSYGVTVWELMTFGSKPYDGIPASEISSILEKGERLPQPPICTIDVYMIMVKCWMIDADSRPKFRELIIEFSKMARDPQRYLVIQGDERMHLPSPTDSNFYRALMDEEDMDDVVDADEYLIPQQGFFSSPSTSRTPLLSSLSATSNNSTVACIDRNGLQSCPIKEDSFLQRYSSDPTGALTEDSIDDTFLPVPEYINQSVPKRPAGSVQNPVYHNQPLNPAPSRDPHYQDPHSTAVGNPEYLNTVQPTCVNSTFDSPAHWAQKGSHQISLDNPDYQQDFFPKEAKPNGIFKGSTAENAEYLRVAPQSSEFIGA
EGFR(D770_N771insSVD) expressing Ba/F3 stable cell line, sequence (P00533 with tags, fused parts or gaps DUP768-770): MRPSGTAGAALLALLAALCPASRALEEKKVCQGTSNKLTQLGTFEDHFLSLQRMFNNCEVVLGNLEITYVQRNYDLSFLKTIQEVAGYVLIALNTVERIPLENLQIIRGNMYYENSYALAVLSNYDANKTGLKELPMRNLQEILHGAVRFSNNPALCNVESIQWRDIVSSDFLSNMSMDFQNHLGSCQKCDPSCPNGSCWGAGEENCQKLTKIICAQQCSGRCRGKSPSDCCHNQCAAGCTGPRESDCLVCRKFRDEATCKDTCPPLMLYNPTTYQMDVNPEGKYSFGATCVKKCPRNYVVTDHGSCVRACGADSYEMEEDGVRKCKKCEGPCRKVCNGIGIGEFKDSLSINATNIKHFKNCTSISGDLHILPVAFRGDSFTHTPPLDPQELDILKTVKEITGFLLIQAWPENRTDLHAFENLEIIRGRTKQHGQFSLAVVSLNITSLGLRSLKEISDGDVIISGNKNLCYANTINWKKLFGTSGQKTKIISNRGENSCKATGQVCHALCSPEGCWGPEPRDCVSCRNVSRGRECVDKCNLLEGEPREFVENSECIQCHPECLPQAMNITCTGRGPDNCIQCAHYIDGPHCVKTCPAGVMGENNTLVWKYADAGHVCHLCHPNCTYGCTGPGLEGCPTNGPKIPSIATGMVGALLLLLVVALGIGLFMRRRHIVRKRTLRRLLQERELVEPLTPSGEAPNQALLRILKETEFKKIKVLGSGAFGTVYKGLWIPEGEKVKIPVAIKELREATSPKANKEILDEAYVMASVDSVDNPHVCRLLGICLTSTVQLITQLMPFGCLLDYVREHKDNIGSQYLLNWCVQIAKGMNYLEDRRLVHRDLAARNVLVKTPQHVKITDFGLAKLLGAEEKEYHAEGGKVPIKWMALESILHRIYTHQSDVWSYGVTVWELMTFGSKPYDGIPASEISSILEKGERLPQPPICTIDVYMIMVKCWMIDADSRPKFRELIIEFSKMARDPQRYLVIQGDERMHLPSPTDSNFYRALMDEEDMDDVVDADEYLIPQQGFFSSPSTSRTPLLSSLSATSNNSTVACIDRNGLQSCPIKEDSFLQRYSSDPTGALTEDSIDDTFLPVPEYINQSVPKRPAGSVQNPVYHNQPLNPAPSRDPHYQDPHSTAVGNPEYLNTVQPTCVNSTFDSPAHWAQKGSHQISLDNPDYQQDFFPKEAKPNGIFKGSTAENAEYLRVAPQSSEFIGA

Row | SMILES | GI50 [1] [nM] | GI50 [2] [nM] | GI50 [3] [nM] | IC50 (A431 cells) [nM]
1 | C=CC(=O)Nc1ccc(F)c(Nc2nc(Nc3cnn(C)c3)ncc2-c2cccc(Br)c2)c1 [Compound 201, N-(3-((5-(3-bromophenyl)-2-((1-methyl-1H-pyrazol-4-yl)amino)pyrimidin-4-yl)amino)-4-fluorophenyl)acrylamide] | 270 | 424 | 227 | 1520
2 | C=CC(=O)Nc1cccc(Nc2nc(Nc3cnn(C)c3)ncc2-c2ccc(Br)cc2)c1F [Compound 202, N-(3-((5-(4-bromophenyl)-2-((1-methyl-1H-pyrazol-4-yl)amino)pyrimidin-4-yl)amino)-2-fluorophenyl)acrylamide] | 35 | 217 | 34 | 44
3 | C=CC(=O)Nc1ccc(F)c(Nc2nc(Nc3cn(C)nc3Cl)ncc2-c2ccc(Br)cc2)c1 [Compound 204, N-(3-((5-(4-bromophenyl)-2-((3-chloro-1-methyl-1H-pyrazol-4-yl)amino)pyrimidin-4-yl)amino)-4-fluorophenyl)acrylamide] | 93 | 688 | 131 | 28
4 | C=CC(=O)Nc1ccc(F)c(Nc2nc(Nc3cnn(C4COC4)c3)ncc2-c2ccc(Br)cc2)c1 [Compound 205, N-(3-((5-(4-bromophenyl)-2-((1-(oxetan-3-yl)-1H-pyrazol-4-yl)amino)pyrimidin-4-yl)amino)-4-fluorophenyl)acrylamide] | 39 | 278 | 73 | 132
5 | C=CC(=O)Nc1ccc(F)c(Nc2nc(Nc3cnn(CCO)c3)ncc2-c2ccc(Br)cc2)c1 [Compound 206, N-(3-((5-(4-bromophenyl)-2-((1-(2-hydroxyethyl)-1H-pyrazol-4-yl)amino)pyrimidin-4-yl)amino)-4-fluorophenyl)acrylamide] | 35 | 120 | 44 | 36
6 | C=CC(=O)Nc1ccc(F)c(Nc2nc(Nc3cn(CCN(C)C)nc3Cl)ncc2-c2ccc(Br)cc2)c1 [Compound 208, N-(3-((5-(4-bromophenyl)-2-((3-chloro-1-(2-(dimethylamino)ethyl)-1H-pyrazol-4-yl)amino)pyrimidin-4-yl)amino)-4-fluorophenyl)acrylamide] | 76 | 402 | 121 | 46
7 | C=CC(=O)Nc1ccc(F)c(Nc2cc(Nc3cnn(C)c3)ncc2-c2ccc(C(F)(F)F)cc2)c1 [Compound 210, N-[4-fluoro-3-({2-[(1-methyl-1H-pyrazol-4-yl)amino]-5-[4-(trifluoromethyl)phenyl]pyridin-4-yl}amino)phenyl]prop-2-enamide] | 2840 | 3580 | 2900 | 4480
8 | C=CC(=O)Nc1ccc(F)c(N(C)c2nc(Nc3cnn(C)c3)ncc2-c2ccc(C(F)(F)F)cc2)c1 [Compound 228, N-(4-fluoro-3-(methyl(2-((1-methyl-1H-pyrazol-4-yl)amino)-5-(4-(trifluoromethyl)phenyl)pyrimidin-4-yl)amino)phenyl)acrylamide] | 952 | 1250 | 891 | 4120
9 | C=CC(=O)Nc1cc(Nc2nc(Nc3cnn(C)c3)ncc2-c2ccc(C(F)(F)F)cc2)ccc1F [Compound 238, N-(2-fluoro-5-((2-((1-methyl-1H-pyrazol-4-yl)amino)-5-(4-(trifluoromethyl)phenyl)pyrimidin-4-yl)amino)phenyl)acrylamide] | 312 | 3010 | 90 | 617
10 | C=CC(=O)Nc1cc(F)cc(Nc2nc(Nc3cnn(C)c3)ncc2-c2ccc(C(F)(F)F)cc2)c1 [Compound 239, N-(3-fluoro-5-((2-((1-methyl-1H-pyrazol-4-yl)amino)-5-(4-(trifluoromethyl)phenyl)pyrimidin-4-yl)amino)phenyl)acrylamide] | 36 | 251 | 91 | 229
11 | C=CC(=O)Nc1ccc(F)c(Nc2nc(Nc3cnn(CC(C)(C)O)c3)ncc2-c2ccc(C(F)(F)F)cc2)c1 [Compound 240, N-(4-fluoro-3-((2-((1-(2-hydroxy-2-methylpropyl)-1H-pyrazol-4-yl)amino)-5-(4-(trifluoromethyl)phenyl)pyrimidin-4-yl)amino)phenyl)acrylamide] | 395 | 2010 | 861 | 441
12 | C=CC(=O)Nc1ccc(F)c(Nc2nc(Nc3cn(CCO)nc3Cl)ncc2-c2ccc(C(F)(F)F)cc2)c1 [Compound 241, N-(3-((2-((3-chloro-1-(2-hydroxyethyl)-1H-pyrazol-4-yl)amino)-5-(4-(trifluoromethyl)phenyl)pyrimidin-4-yl)amino)-4-fluorophenyl)acrylamide] | 105 | 343 | 146 | 105
13 | C=CC(=O)Nc1ccc(F)c(Nc2nc(Nc3cnn(C)c3)ncc2C#CC2CC2)c1 [Compound 244, N-(3-{[5-(2-cyclopropylethynyl)-2-[(1-methyl-1H-pyrazol-4-yl)amino]pyrimidin-4-yl]amino}-4-fluorophenyl)prop-2-enamide] | 1890 | 2250 | 2180 | 1810
14 | C=CC(=O)Nc1ccc(F)c(Nc2nc(Nc3cn(C)nc3Cl)ncc2-c2ccc(C(F)(F)F)cc2)c1 [Compound 245, N-[3-({2-[(3-chloro-1-methyl-1H-pyrazol-4-yl)amino]-5-[4-(trifluoromethyl)phenyl]pyrimidin-4-yl}amino)-4-fluorophenyl]prop-2-enamide] | 91 | 202 | 115 | 63
15 | C=CC(=O)Nc1ccc(F)c(Nc2nc(Nc3cnn(C(C)(C)C#N)c3)ncc2-c2ccc(C(F)(F)F)cc2)c1 [Compound 246, N-(3-((2-((1-(2-cyanopropan-2-yl)-1H-pyrazol-4-yl)amino)-5-(4-(trifluoromethyl)phenyl)pyrimidin-4-yl)amino)-4-fluorophenyl)acrylamide] | 299 | 2070 | 303 | 368

Next, values leading:

Row | GI50 [1] [nM] | GI50 [2] [nM] | GI50 [3] [nM] | IC50 (A431 cells) [nM] | SMILES
16 | 101 | 1050 | 261 | 123 | [2H]C([2H])=CC(=O)Nc1ccc(F)c(Nc2nc(Nc3cn(C)nc3Cl)ncc2-c2ccc(C(F)(F)F)cc2)c1 [Compound 249, N-(3-((2-((3-chloro-1-methyl-1H-pyrazol-4-yl)amino)-5-(4-(trifluoromethyl)phenyl)pyrimidin-4-yl)amino)-4-fluorophenyl)acrylamide-3,3-d2]
17 | 34 | 204 | 47 | 65 | [2H]C([2H])=CC(=O)Nc1ccc(F)c(Nc2nc(Nc3cnn(C)c3)ncc2-c2ccc(Br)cc2)c1 [Compound 250, N-(3-((5-(4-bromophenyl)-2-((1-methyl-1H-pyrazol-4-yl)amino)pyrimidin-4-yl)amino)-4-fluorophenyl)acrylamide-3,3-d2]
18 | 8460 | 8670 | 9470 | 1000 | C#CC(=O)Nc1ccc(F)c(Nc2nc(Nc3cnn(C)c3)ncc2-c2ccc(C(F)(F)F)cc2)c1 [Compound 254, N-[4-fluoro-3-({2-[(1-methyl-1H-pyrazol-4-yl)amino]-5-[4-(trifluoromethyl)phenyl]pyrimidin-4-yl}amino)phenyl] prop-2-ynamide]
19 | 923 | 755 | 411 | 1020 | C=CC(=O)Nc1ccc(F)c(Nc2nc(Nc3cnn(C)c3)ncc2Br)c1 [Compound 256, N-(3-((5-bromo-2-((1-methyl-1H-pyrazol-4-yl)amino)pyrimidin-4-yl)amino)-4-fluorophenyl)acrylamide]
20 | 149 | 471 | 328 | 93 | C=CC(=O)Nc1ccc(F)c(Nc2nc(Nc3cnn(C)c3)ncc2-c2ccc3ncnn3c2)c1 [Compound 279, N-(3-((5-([1,2,4]triazolo[1,5-a]pyridin-6-yl)-2-((1-methyl-1H-pyrazol-4-yl)amino)pyrimidin-4-yl)amino)-4-fluorophenyl)acrylamide]
21 | 21 | 110 | 28 | 4 | C=CC(=O)Nc1cccc(Nc2nc(Nc3cnn(C)c3)ncc2-c2ccc(CC(F)(F)F)cc2)c1 [Compound 293, N-(3-((2-((1-methyl-1H-pyrazol-4-yl)amino)-5-(4-(2,2,2-trifluoroethyl)phenyl)pyrimidin-4-yl)amino)phenyl)acrylamide]
22 | 100 | 803 | 80 | 45 | C=CC(=O)Nc1ccc(F)c(Nc2nc(Nc3cnn(C)c3)ncc2-c2ccc(C3(C(F)(F)F)CC3)cc2)c1 [Compound 294, N-(4-fluoro-3-((2-((1-methyl-1H-pyrazol-4-yl)amino)-5-(4-(1-(trifluoromethyl)cyclopropyl)phenyl)pyrimidin-4-yl)amino)phenyl)acrylamide]
23 | 34 | 210 | 38 | 6 | C=CC(=O)Nc1cc(F)cc(Nc2nc(Nc3cnn(C)c3)ncc2-c2ccc(CC(F)(F)F)cc2)c1 [Compound 295, N-(3-fluoro-5-((2-((1-methyl-1H-pyrazol-4-yl)amino)-5-(4-(2,2,2-trifluoroethyl)phenyl)pyrimidin-4-yl)amino)phenyl)acrylamide]

Source: patent US12686673B2 (Blueprint Medicines Corporation, priority 2020, dated 2026)
